The test system of the experiment is 616215-338-R-J1-PDC spheroid with HUVEC/MSC, viability. The experiment can be described thus: Anticancer human tumor 616215-338-R-J1-PDC patient-derived colon adenocarcinoma cell line growth inhibition [TAK]. Particulars: for viability, T/C: stronger effect = lower value. In short, it runs like this:
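Drug combinations, each paired with TAK-243 or ipatasertib, were tested on multi-cell spheroids of 60% malignant cells, 25% HUVEC and 15% hMSC. Top concentrations were at or near the clinical Cmax (10 microM if undetermined), decreasing by half-log; viability is given as % test/control.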

Where [1] appears, read: curve of first compound, second compound 0.3 µM.
[2] abbreviates: curve of first compound, second compound 0.949 µM.
The mark [3] stands for this setting: curve of first compound, second compound 3 µM.
Setting [4] is: curve of first compound, second compound 9.49 µM.
Where [5] appears, read: curve of first compound, second compound 30 µM.
[6] abbreviates: second compound 0.3 µM, first compound 0.00316 µM.
The mark [7] stands for this setting: second compound 0.3 µM, first compound 0.01 µM.
[8] abbreviates: second compound 0.3 µM, first compound 0.0316 µM.
[9] abbreviates: second compound 0.3 µM, first compound 0.1 µM.
Where [10] appears, read: second compound 0.949 µM, first compound 0.00316 µM.
Setting [11] is: second compound 0.949 µM, first compound 0.01 µM.
The mark [12] stands for this setting: second compound 0.949 µM, first compound 0.0316 µM.
Where [13] appears, read: second compound 0.949 µM, first compound 0.1 µM.
Where [14] appears, read: second compound 3 µM, first compound 0.00316 µM.
[15] abbreviates: second compound 3 µM, first compound 0.01 µM.
Setting [16] is: second compound 3 µM, first compound 0.0316 µM.
Setting [17] is: second compound 3 µM, first compound 0.1 µM.
Setting [18] is: second compound 9.49 µM, first compound 0.00316 µM.
Setting [19] is: second compound 9.49 µM, first compound 0.01 µM.
Setting [20] is: second compound 9.49 µM, first compound 0.0316 µM.
The mark [21] stands for this setting: second compound 9.49 µM, first compound 0.1 µM.
Setting [22] is: second compound 30 µM, first compound 0.00316 µM.
The mark [23] stands for this setting: second compound 30 µM, first compound 0.01 µM.
The mark [24] stands for this setting: second compound 30 µM, first compound 0.0316 µM.
Where [25] appears, read: second compound 30 µM, first compound 0.1 µM.
The mark [26] stands for this setting: second compound 0.3 µM, first compound 0.316 µM.
[27] abbreviates: second compound 0.3 µM, first compound 1 µM.
Setting [28] is: second compound 0.949 µM, first compound 0.316 µM.
Where [29] appears, read: second compound 0.949 µM, first compound 1 µM.
The mark [30] stands for this setting: second compound 3 µM, first compound 0.316 µM.
Where [31] appears, read: second compound 3 µM, first compound 1 µM.
Setting [32] is: second compound 9.49 µM, first compound 0.316 µM.
[33] abbreviates: second compound 9.49 µM, first compound 1 µM.
The mark [34] stands for this setting: second compound 30 µM, first compound 0.316 µM.
Where [35] appears, read: second compound 30 µM, first compound 1 µM.

From PubChem BioAssay AID2060352 (Molecular Pharmacology Branch, DTP, NCI, 2025) come the findings set out here.

“And” between values parts separate entries of the source, which are not always exact repeats. Equal entries are not always repeated.
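Note: spheroids exposed to drugs for 7 days before readout.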

The term IC50 denotes the midpoint of a concentration-inhibition curve. For orientation: viability, T/C means the result in the treated group divided by that in the control group, in per cent. As for `CC(C)CC(NC(=O)CNC(=O)c1cc(Cl)ccc1Cl)B1OC(=O)CC(CC(=O)O)(C(=O)O)O1` (configuration not stated) + CC(C)NCC(C(=O)N1CCN(c2ncnc3c2C(C)CC3O)CC1)c1ccc(Cl)cc1, the IC50 reads like this: under setting [1], 21 nM; under setting [2], 20.7 nM; under setting [3], 14.2 nM; under setting [4], below 0.316 nM; under setting [5], below 0.316 nM. Further, the viability, T/C was 115% (second compound 0.3 µM, first compound 0.000316 µM); 123% (second compound 0.3 µM, first compound 0.001 µM); 122% under setting [6]; 105% under setting [7]; 19.7% under setting [8]; 0.11% under setting [9]. The viability, T/C runs as follows: (second compound 0.949 µM, first compound 0.000316 µM) 134%; (second compound 0.949 µM, first compound 0.001 µM) 136%; under setting [10], 132%; under setting [11], 129%; under setting [12], 4.16%; under setting [13], 0.13%. Also, the viability, T/C by setting is: (second compound 3 µM, first compound 0.000316 µM) 78.8%; (second compound 3 µM, first compound 0.001 µM) 68.6%; under setting [14], 57.7%; under setting [15], 76.5%; under setting [16], 3.6%; under setting [17], 0.77%. In addition, the viability, T/C runs as follows: (second compound 9.49 µM, first compound 0.000316 µM) 23.4%; (second compound 9.49 µM, first compound 0.001 µM) 21.8%; under setting [18], 23.6%; under setting [19], 23.7%; under setting [20], 1.97%; under setting [21], 0.97%. The viability, T/C reads like this: (second compound 30 µM, first compound 0.000316 µM) 11.2%; (second compound 30 µM, first compound 0.001 µM) 9.33%; under setting [22], 10.7%; under setting [23], 8.93%; under setting [24], 2.11%; under setting [25], 0.25%.
For the compound `Cn1cnc2c(F)c(Nc3ccc(Br)cc3Cl)c(C(=O)NOCCO)cc21`, the viability, T/C reads like this: (compound 0.00949 µM) 115% and 123%; (compound 0.03 µM) 109% and 107%; (compound 0.0949 µM) 98.8% and 134%; (compound 0.3 µM) 64.2% and 90.9%; (compound 0.949 µM) 43.6% and 36.8%; (compound 3 µM) 28.2% and 22.3%. In addition, where the note is “curve of compound”, the IC50 was 632 nM and 695 nM.
Turning to `CC(C)CC(NC(=O)C(Cc1ccccc1)NC(=O)c1cnccn1)B(O)O` (configuration not stated), the viability, T/C (compound 31.6 pM) is 98.1% and 102%; the viability, T/C (compound 0.0001 µM) was 115% and 110%; the viability, T/C (compound 0.000316 µM) is 101% and 108%; the viability, T/C (compound 0.001 µM) was 92.3% and 103%; the viability, T/C (compound 0.00316 µM) was 107% and 102%. Further, the IC50 (curve of compound) is > 10 nM and 5.79 nM.
Take `CC(C)CC(NC(=O)CNC(=O)c1cc(Cl)ccc1Cl)B1OC(=O)CC(CC(=O)O)(C(=O)O)O1` (configuration not stated): the viability, T/C by setting is: (compound 0.000316 µM) 93.3% and 102%; (compound 0.001 µM) 97.9% and 110%; (compound 0.00316 µM) 104% and 111%; (compound 0.01 µM) 95.5% and 107%; (compound 0.0316 µM) 7.86% and 10.7%; (compound 0.1 µM) 0.16% and 0.17%. Moreover, the IC50 (curve of compound) was 18.2 nM and 19.7 nM.
As for `Cc1nc(NC(=O)N2CCCC2C(N)=O)sc1-c1ccnc(C(C)(C)C(F)(F)F)c1` (configuration not stated) + CC(C)NCC(C(=O)N1CCN(c2ncnc3c2C(C)CC3O)CC1)c1ccc(Cl)cc1, the IC50 was above 10000 nM under setting [1]; above 10000 nM under setting [2]; 2760 nM under setting [3]; below 31.6 nM under setting [4]; below 31.6 nM under setting [5]. The viability, T/C by setting is: under setting [8], 101%; under setting [9], 113%; under setting [26], 127%; under setting [27], 112%; (second compound 0.3 µM, first compound 3.16 µM) 119%; (second compound 0.3 µM, first compound 10 µM) 83.3%. The viability, T/C is 120% under setting [12]; 119% under setting [13]; 128% under setting [28]; 119% under setting [29]; 110% (second compound 0.949 µM, first compound 3.16 µM); 51.3% (second compound 0.949 µM, first compound 10 µM). The viability, T/C by setting is: under setting [16], 94.9%; under setting [17], 91%; under setting [30], 80%; under setting [31], 52.2%; (second compound 3 µM, first compound 3.16 µM) 59.3%; (second compound 3 µM, first compound 10 µM) 37.8%. For the same compound, the viability, T/C under setting [20] was 28%; the viability, T/C under setting [21] was 27.4%; the viability, T/C under setting [32] was 25.1%; the viability, T/C under setting [33] is 24.9%; the viability, T/C (second compound 9.49 µM, first compound 3.16 µM) was 21.5%; the viability, T/C (second compound 9.49 µM, first compound 10 µM) was 16.1%. Further, the viability, T/C is 14.2% under setting [24]; 14.4% under setting [25]; 11.4% under setting [34]; 11.3% under setting [35]; 10% (second compound 30 µM, first compound 3.16 µM); 6.48% (second compound 30 µM, first compound 10 µM).
As to `Cc1nc(NC(=O)N2CCCC2C(N)=O)sc1-c1ccnc(C(C)(C)C(F)(F)F)c1` (configuration not stated), the viability, T/C was 118% and 104% (compound 0.0316 µM); 107% and 117% (compound 0.1 µM); 120% and 111% (compound 0.316 µM); 105% and 108% (compound 1 µM); 106% and 111% (compound 3.16 µM); 106% and 91.4% (compound 10 µM). Moreover, the IC50 (curve of compound) is above 10000 nM.
`COc1c(OCCCN2CCOCC2)ccc2c3n(c(=NC(=O)c4cnc(N)nc4)nc12)CCN3` + CC(C)NCC(C(=O)N1CCN(c2ncnc3c2C(C)CC3O)CC1)c1ccc(Cl)cc1: the IC50 reads like this: under setting [1], 99.4 nM; under setting [2], 73.1 nM; under setting [3], 9.23 nM; under setting [4], below 3.16 nM; under setting [5], below 3.16 nM. Besides, the viability, T/C runs as follows: under setting [6], 101%; under setting [7], 113%; under setting [8], 110%; under setting [9], 49.7%; under setting [26], 27.2%; under setting [27], 17.6%. Besides, the viability, T/C reads like this: under setting [10], 113%; under setting [11], 117%; under setting [12], 83.3%; under setting [13], 37.4%; under setting [28], 24.4%; under setting [29], 15.8%. Also, the viability, T/C under setting [14] is 64.3%; the viability, T/C under setting [15] is 49.7%; the viability, T/C under setting [16] was 33.9%; the viability, T/C under setting [17] was 26.4%; the viability, T/C under setting [30] is 19.1%; the viability, T/C under setting [31] is 15.6%. For the same compound, the viability, T/C under setting [18] is 23.5%; the viability, T/C under setting [19] was 31.1%; the viability, T/C under setting [20] was 20.9%; the viability, T/C under setting [21] was 14.4%; the viability, T/C under setting [32] was 12.7%; the viability, T/C under setting [33] is 14.9%. Also, the viability, T/C under setting [22] was 11.7%; the viability, T/C under setting [23] is 12.8%; the viability, T/C under setting [24] was 9.99%; the viability, T/C under setting [25] was 9.6%; the viability, T/C under setting [34] is 8.41%; the viability, T/C under setting [35] was 7.42%.
